# From patent US9493436B2, “Tyrosine phosphatase inhibitors and uses thereof to modulate the activity of enzymes involved in the pathology of Mycobacterium tuberculosis” (priority 2011, dated 2016)
# Like-named read-outs stand apart in the source and are kept apart here.
# Key:
# mPTPB = target: T1, mPTPB (Mycobacterium tuberculosis, UniProt I6WXK4); assay: biochemical; assay type: biochemical; settings: for In % @ 1 μM (mPTPB): library 13 screened in situ
# T1 construct: The full-length mPTPB with a N-terminal His6-tag was expressed and purified; His6 (N); made in house; host or cells: E. coli BL21/DE3 (pET28b-mPTPB)
# T1 sequence (I6WXK4 1-276): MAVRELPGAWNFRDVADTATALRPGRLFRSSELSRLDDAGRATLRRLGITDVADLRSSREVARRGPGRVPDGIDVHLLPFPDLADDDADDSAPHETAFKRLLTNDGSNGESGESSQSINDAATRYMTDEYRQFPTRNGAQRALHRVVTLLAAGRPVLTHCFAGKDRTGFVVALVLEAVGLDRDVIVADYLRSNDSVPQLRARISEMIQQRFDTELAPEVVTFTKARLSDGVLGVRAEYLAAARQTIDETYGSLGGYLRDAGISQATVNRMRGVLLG
# Lyp = target: T2, Lyp (Homo sapiens, UniProt Q9Y2R2); assay: biochemical; assay type: biochemical
# T2 sequence (Q9Y2R2 1-807): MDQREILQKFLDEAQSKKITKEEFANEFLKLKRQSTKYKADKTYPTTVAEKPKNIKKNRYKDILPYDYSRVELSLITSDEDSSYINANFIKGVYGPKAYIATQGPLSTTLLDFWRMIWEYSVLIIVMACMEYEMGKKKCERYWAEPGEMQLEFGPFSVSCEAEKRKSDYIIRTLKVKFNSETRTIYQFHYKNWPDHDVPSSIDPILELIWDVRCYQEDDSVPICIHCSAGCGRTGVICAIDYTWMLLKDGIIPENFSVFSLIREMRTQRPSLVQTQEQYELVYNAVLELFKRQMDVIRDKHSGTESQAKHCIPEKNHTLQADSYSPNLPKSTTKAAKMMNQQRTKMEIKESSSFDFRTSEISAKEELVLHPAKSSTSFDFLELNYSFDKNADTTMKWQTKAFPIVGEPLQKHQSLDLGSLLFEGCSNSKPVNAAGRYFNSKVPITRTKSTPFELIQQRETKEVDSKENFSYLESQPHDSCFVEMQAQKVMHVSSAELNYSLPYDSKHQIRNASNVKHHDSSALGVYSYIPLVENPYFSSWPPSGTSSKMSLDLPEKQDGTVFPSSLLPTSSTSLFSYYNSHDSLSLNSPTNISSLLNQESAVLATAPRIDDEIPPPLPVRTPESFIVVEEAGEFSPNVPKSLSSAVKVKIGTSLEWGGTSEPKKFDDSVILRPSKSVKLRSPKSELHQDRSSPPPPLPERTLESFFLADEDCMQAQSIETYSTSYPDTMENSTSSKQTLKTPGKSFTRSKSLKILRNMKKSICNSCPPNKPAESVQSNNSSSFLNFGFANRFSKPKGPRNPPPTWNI
# [1] = pNPP substrate, pH 7.0, 25° C., read-out: IC50 (μM) against mPTPB
smiles,measurement,setting,value
CC(C)c1ccc(NC(=O)COc2cccc(-c3oc4cc(O)c(C(=O)O)cc4c3C#Cc3cccc(Cl)c3)c2)cc1,IC50,mPTPB; read-out: IC50 for mPTPB,~0.025 µM
O=C(O)c1cc2c(C#Cc3ccc(Oc4ccccc4)cc3)c(-c3ccccc3)oc2cc1O [34 (L01Z12)],IC50,mPTPB; [1],0.043 µM
C#Cc1c(-c2ccc(OC(F)(F)F)cc2)oc2cc(O)c(C(=O)O)cc12 [35 (Core73)],IC50,mPTPB; [1],1.71 µM
O=C(O)c1cc2c(C#Cc3cccc(Cl)c3)c(-c3ccc(OC(F)(F)F)cc3)oc2cc1O [36 (L73Z01)],IC50,mPTPB; [1],0.082 µM
O=C(O)c1cc2c(C#Cc3ccc(Cl)c(Cl)c3)c(-c3ccc(OC(F)(F)F)cc3)oc2cc1O [37 (L73Z02)],IC50,mPTPB; [1],0.12 µM
O=C(O)c1cc2c(C#Cc3ccsc3)c(-c3ccc(OC(F)(F)F)cc3)oc2cc1O [38 (L73Z03)],IC50,mPTPB; [1],0.35 µM
O=C(O)COc1cccc(C#Cc2c(-c3ccc(OC(F)(F)F)cc3)oc3cc(O)c(C(=O)O)cc23)c1 [39 (L73Z05)],IC50,mPTPB; [1],0.19 µM
C#Cc1c(-c2ccc(Oc3ccccc3)cc2)oc2cc(O)c(C(=O)O)cc12 [40 (Core69)],IC50,mPTPB; [1],2.3 µM
C#Cc1c(-c2ccc(-c3ccccc3)cc2)oc2cc(O)c(C(=O)O)cc12 [41 (Core71)],IC50,mPTPB; [1],0.85 µM
C#Cc1c(-c2cccc(Cl)c2)oc2cc(O)c(C(=O)O)cc12 [42 (Core72)],IC50,mPTPB; [1],3.1 µM
O=C(O)c1cc2c(C=Cc3cc(F)cc(F)c3)c(-c3ccccc3)oc2cc1O [43 (L01Z25)],IC50,mPTPB; [1],1.2 µM
O=C(O)c1cc2c(C=Cc3cccc(C(F)(F)F)c3)c(-c3ccccc3)oc2cc1O [44 (L01X09)],IC50,mPTPB; [1],1.2 µM
O=C(O)COc1cccc(-c2oc3cc(O)c(C(=O)O)cc3c2C#Cc2cccc(Cl)c2)c1 [49 (Core 74)],IC50,mPTPB; [1],0.076 µM
same,loss of activity compare with compound 133 for Lyp,Lyp,15 fold
O=C(O)COc1ccc(-c2oc3cc(O)c(C(=O)O)cc3c2C#Cc2cccc(Cl)c2)cc1 [50 (Core 75)],IC50,mPTPB; [1],0.101 µM
same,IC50,Lyp,7.6 ± 0.4 µM
same,loss of activity compare with compound 133 for Lyp,Lyp,7.8 fold
"Cn1c(-c2cccc(C(F)(F)F)c2)c(I)c2cc(C(=O)O)c(O)cc21 [Compound 207b, 6-hydroxy-3-iodo-1-methyl-2-(3-(trifluoromethyl)phenyl)-1H-indole-5-carboxylic acid]",IC50,mPTPB; [1],2.2 ± 0.2 µM
"Cn1c(-c2ccc(-c3ccccc3)cc2)c(I)c2cc(C(=O)O)c(O)cc21 [Compound 207c, 2-([1,1′-biphenyl]-4-yl)-6-hydroxy-3-iodo-1-methyl-1H-indole-5-carboxylic acid]",IC50,mPTPB; [1],2.4 ± 0.2 µM
"Cn1c(C2CCCCC2)c(I)c2cc(C(=O)O)c(O)cc21 [Compound 207d, 2-cyclohexyl-6-hydroxy-3-iodo-1-methyl-1H-indole-5-carboxylic acid]",IC50,mPTPB; [1],3.6 ± 0.1 µM
"Cn1c(-c2ccc(OC(F)(F)F)cc2)c(I)c2cc(C(=O)O)c(O)cc21 [Compound 207e, 6-hydroxy-3-iodo-1-methyl-2-(4-(trifluoromethoxy)phenyl)-1H-indole-5-carboxylic acid]",IC50,mPTPB; [1],5.5 ± 0.5 µM
"Cn1c(-c2ccc(C(F)(F)F)cc2)c(I)c2cc(C(=O)O)c(O)cc21 [Compound 207f, 6-hydroxy-3-iodo-1-methyl-2-(4-(trifluoromethyl)phenyl)-1H-indole-5-carboxylic acid]",IC50,mPTPB; [1],7 ± 1 µM
"Cn1c(-c2ccccc2)c(I)c2cc(C(=O)O)c(O)cc21 [Compound 207g, 6-hydroxy-3-iodo-1-methyl-2-phenyl-1H-indole-5-carboxylic acid]",IC50,mPTPB; [1],11 ± 1 µM
"Cn1c(-c2cccc(F)c2)c(I)c2cc(C(=O)O)c(O)cc21 [Compound 207h, 2-(3-fluorophenyl)-6-hydroxy-3-iodo-1-methyl-1H-indole-5-carboxylic acid]",IC50,mPTPB; [1],11 ± 1 µM
"Cn1c(-c2ccc(F)cc2)c(I)c2cc(C(=O)O)c(O)cc21 [Compound 207i, 2-(4-fluorophenyl)-6-hydroxy-3-iodo-1-methyl-1H-indole-5-carboxylic acid]",IC50,mPTPB; [1],12 ± 2 µM
"Cn1c(-c2ccccc2F)c(I)c2cc(C(=O)O)c(O)cc21 [Compound 207j, 2-(2-fluorophenyl)-6-hydroxy-3-iodo-1-methyl-1H-indole-5-carboxylic acid]",IC50,mPTPB; [1],16 ± 2 µM
"Cn1c(-c2cccc(O)c2)c(I)c2cc(C(=O)O)c(O)cc21 [Compound 207k, 6-hydroxy-2-(3-hydroxyphenyl)-3-iodo-1-methyl-1H-indole-5-carboxylic acid]",IC50,mPTPB; [1],18 ± 1 µM
"Cn1c(-c2ccccc2C(F)(F)F)c(C#Cc2cccc(C(F)(F)F)c2)c2cc(C(=O)O)c(O)cc21 [Compound 209b, 6-hydroxy-1-methyl-2-(2-(trifluoromethyl)phenyl)-3-((3-(trifluoromethyl)phenyl)ethynyl)-1H-indole-5-carboxylic acid]",IC50,mPTPB; [1],0.23 ± 0.04 µM
"Cn1c(-c2ccccc2C(F)(F)F)c(C#Cc2ccccc2C(F)(F)F)c2cc(C(=O)O)c(O)cc21 [Compound 209c, 6-hydroxy-1-methyl-2-(2-(trifluoromethyl)phenyl)-3-((2-(trifluoromethyl)phenyl)ethynyl)-1H-indole-5-carboxylic acid]",IC50,mPTPB; [1],0.3 ± 0.05 µM
"Cn1c(-c2ccccc2C(F)(F)F)c(C#Cc2ccc(Oc3ccccc3)cc2)c2cc(C(=O)O)c(O)cc21 [Compound 209d, 6-hydroxy-1-methyl-3-((4-phenoxyphenyl)ethynyl)-2-(2-(trifluoromethyl)phenyl)-1H-indole-5-carboxylic acid]",IC50,mPTPB; [1],0.46 ± 0.06 µM
"Cn1c(-c2ccccc2C(F)(F)F)c(C#Cc2ccc(C(F)(F)F)cc2)c2cc(C(=O)O)c(O)cc21 [Compound 209e, 6-hydroxy-1-methyl-2-(2-(trifluoromethyl)phenyl)-3-((4-(trifluoromethyl)phenyl)ethynyl)-1H-indole-5-carboxylic acid]",IC50,mPTPB; [1],0.6 ± 0.1 µM
"Cn1c(-c2ccccc2C(F)(F)F)c(C#Cc2ccc(OC(F)(F)F)cc2)c2cc(C(=O)O)c(O)cc21 [Compound 209f, 6-hydroxy-1-methyl-3-((4-(trifluoromethoxy)phenyl)ethynyl)-2-(2-(trifluoromethyl)phenyl)-1H-indole-5-carboxylic acid]",IC50,mPTPB; [1],0.85 ± 0.2 µM
"Cn1c(-c2ccccc2C(F)(F)F)c(C(=O)CCNC(=O)c2cccc(I)c2)c2cc(C(=O)O)c(O)cc21 [Compound 213b, 6-hydroxy-3-(3-(3-iodobenzamido)propanoyl)-1-methyl-2-(2-(trifluoromethyl)phenyl)-1H-indole-5-carboxylic acid]",In % @ 1 μM (mPTPB),mPTPB,52%
same,IC50,mPTPB; [1],0.68 ± 0.04 µM
"CC(C)[C@H]1CC[C@H](C)C[C@@H]1OCC(=O)NCCC(=O)c1c(-c2ccccc2C(F)(F)F)n(C)c2cc(O)c(C(=O)O)cc12 [Compound 213c, 6-hydroxy-3-(3-(2-(((1S,2R,5S)-2-isopropyl-5-methylcyclohexyl)oxy)acetamido)propanoyl)-1-methyl-2-(2-(trifluoromethyl)phenyl)-1H-indole-5-carboxylic acid]",In % @ 1 μM (mPTPB),mPTPB,5%
same,IC50,mPTPB; [1],3.3 ± 0.1 µM
"Cn1c(-c2ccccc2C(F)(F)F)c(C(=O)CCNC(=O)c2ccc3nc(-c4ccccc4Br)[nH]c3c2)c2cc(C(=O)O)c(O)cc21 [Compound 213d, 3-(3-(2-(2-bromophenyl)-1H-benzo[d]imidazole-6-carboxamido)propanoyl)-6-hydroxy-1-methyl-2-(2-(trifluoromethyl)phenyl)-1H-indole-5-carboxylic acid]",In % @ 1 μM (mPTPB),mPTPB,10%
same,IC50,mPTPB; [1],5.2 ± 0.2 µM
"CC(=O)NCCC(=O)c1c(-c2ccccc2C(F)(F)F)n(C)c2cc(O)c(C(=O)O)cc12 [Compound 213e, 3-(3-acetamidopropanoyl)-6-hydroxy-1-methyl-2-(2-(trifluoromethyl)phenyl)-1H-indole-5-carboxylic acid]",In % @ 1 μM (mPTPB),mPTPB,0%
same,IC50,mPTPB; [1],> 20 µM
